Assay results as given in US10335462B2, “Use of long-acting GLP-1 peptides” (Novo Nordisk A/S, priority 2012, dated 2019).
Read-outs that look alike come from different tables or passages of the source.

Key:
[1] = system: human subjects with type 2 diabetes; conditions: in vivo
Description: (§1) The placebo composition may be identical to the composition of the GLP-1 agonists, but not containing a GLP-1 agonist.
(§2) In a 12-week, randomised, double-blind, placebo-controlled trial, 411 human subjects (n=43-50 per group) with type 2 diabetes were exposed.

[2] = system: human subjects with type 2 diabetes; experiment: 12-week randomised, double-blind, placebo-controlled trial: safety and tolerability
Description: as §1, §2

SMILES	major hypoglycaemia [1]	reports of pancreatitis [1]	treatment-related changes in blood calcitonin [1]	withdrawals due to gastrointestinal adverse events [1]	proportion of subjects with nausea and vomiting ([2]; 12 weeks)	reports of pancreatitis ([2]; 12 weeks)	safety concerns ([2]; 12 weeks)	treatment-related changes in blood calcitonin ([2]; 12 weeks)	major hypoglycaemia ([2]; all dose groups)	withdrawals due to gastrointestinal adverse events ([2]; range over the dose groups)	subjects developing low titre non-neutralising anti-semaglutide antibodies (no cross-reaction to native GLP-1) ([2]; semaglutide 1.6 mg T)
CCCCCCCCCCCCCCCC(=O)N[C@@H](CCC(=O)NCCCC[C@H](NC(=O)[C@H](C)NC(=O)[C@H](C)NC(=O)[C@H](CCC(N)=O)NC(=O)CNC(=O)[C@H](CCC(=O)O)NC(=O)[C@H](CC(C)C)NC(=O)[C@H](Cc1ccc(O)cc1)NC(=O)[C@H](CO)NC(=O)[C@H](CO)NC(=O)[C@@H](NC(=O)[C@H](CC(=O)O)NC(=O)[C@H](CO)NC(=O)[C@@H](NC(=O)[C@H](Cc1ccccc1)NC(=O)[C@@H](NC(=O)CNC(=O)[C@H](CCC(=O)O)NC(=O)[C@H](C)NC(=O)[C@@H](N)Cc1cnc[nH]1)[C@@H](C)O)[C@@H](C)O)C(C)C)C(=O)N[C@@H](CCC(=O)O)C(=O)N[C@@H](Cc1ccccc1)C(=O)N[C@H](C(=O)N[C@@H](C)C(=O)N[C@@H](Cc1c[nH]c2ccccc12)C(=O)N[C@@H](CC(C)C)C(=O)N[C@H](C(=O)N[C@@H](CCCNC(=N)N)C(=O)NCC(=O)N[C@@H](CCCNC(=N)N)C(=O)NCC(=O)O)C(C)C)[C@@H](C)CC)C(=O)O [liraglutide]	no major hypoglycaemia	no reports	no reports	2.2%-10	–	–	–	–	–	–	–
CC[C@H](C)[C@H](NC(=O)[C@H](Cc1ccccc1)NC(=O)[C@H](CCC(=O)O)NC(=O)[C@H](CCCCNC(=O)COCCOCCNC(=O)COCCOCCNC(=O)CC[C@H](NC(=O)CCCCCCCCCCCCCCCCC(=O)O)C(=O)O)NC(=O)[C@H](C)NC(=O)[C@H](C)NC(=O)[C@H](CCC(N)=O)NC(=O)CNC(=O)[C@H](CCC(=O)O)NC(=O)[C@H](CC(C)C)NC(=O)[C@H](Cc1ccc(O)cc1)NC(=O)[C@H](CO)NC(=O)[C@H](CO)NC(=O)[C@@H](NC(=O)[C@H](CC(=O)O)NC(=O)[C@H](CO)NC(=O)[C@@H](NC(=O)[C@H](Cc1ccccc1)NC(=O)[C@@H](NC(=O)CNC(=O)[C@H](CCC(=O)O)NC(=O)C(C)(C)NC(=O)[C@@H](N)Cc1cnc[nH]1)[C@@H](C)O)[C@@H](C)O)C(C)C)C(=O)N[C@@H](C)C(=O)N[C@@H](Cc1c[nH]c2ccccc12)C(=O)N[C@@H](CC(C)C)C(=O)N[C@H](C(=O)N[C@@H](CCCNC(=N)N)C(=O)NCC(=O)N[C@@H](CCCNC(=N)N)C(=O)NCC(=O)O)C(C)C [semaglutide]	–	–	–	–	increased with dose, but were generally mild or moderate and ameliorated by titration	no reports	No semaglutide safety concerns were identified	no reports	no major hypoglycaemia	4.7%-27.7	One subject
